# Results as given in US20150031102A1, “METHODS AND COMPOSITIONS FOR ENHANCED PRODUCTION OF BUTANOL BY CLOSTRIDIA” (Butrolix LLC, priority 2012, published 2015).
# Where “and” joins values, the source holds several entries; their conditions need not be identical. Equal entries are not always repeated.
# Tested on: C. acetobutylicum ATCC 824
# Assay: Sequential batch cultures of C. acetobutylicum ATCC 824 grown at 30° C. in YEPG (growth OD600, final pH, ceric ion reactive compounds)
# Assay type: cell-based, Clostridium acetobutylicum
# Settings: for Final pH / Optical density at 600 nm / Optical density of ceric ion reactive compounds measured at 500 nm: 96 h culture
# Protocol: Clostridium acetobutylicum ATCC 824 and C. beijerinckii NCIMB 8052 are available from several commercial microbial culture collections including the American Type Culture Collection (ATCC), Manassas, Va., USA. The strain grown at 30 C or 37 C in YE broth, which contained, per liter: 5.0 g yeast extract, 2.5 g casamino acids, 1.0 g L-asparagine, 0.5 g cysteine·HCl, 56 mg K2HPO4, 56 mg KH2PO4, 82 mg anhydrous MgSO4, 8 mg FeSO4.H2O, 6 mg MnSO4.H2O and 10 g glucose. Alternatively, strains were grown in YEPG broth, which was identical to YE expect that K2HPO4 and KH2PO4 were increased to 145 mg/L each and glucose was increased to 60 g/L. The pH of the media was adjusted to 7.2 using 45% KOH prior to sterilization by autoclaving. Media were solidified by addition of 1.5% Bacteriological Agar, Acumedia Manufacturers, Inc., Lansing, Mich. All cultures were grown in anaerobic conditions using the AnaeroPack System, Mitsubishi Gas Chemical Co., Inc., Japan, and GasPak EZ Gas Generating Sachets, Becton, Dickinson and Co., Sparks, Md. Spore stocks were kept at room temperature on agar-solidified media and were activated by suspending spores in 0.5 mL to 1.0 mL of medium followed by heating for 10 min at 80 C before inoculation into growth medium.
# Growth of bacterial cultures was measured spectrophotometrically using optical density at 600 nm and pH of cell-free culture supernatants was measured using a hand-held Shindengen ISFET pH Meter KS501, Shendengen Electric Manufacturing Co., Ltd., Bannockburn, Ill.
# Total alcohols in cell-free culture supernatants were measured using a modification of a colorimetric method based on ceric ammonium nitrate (Reid and Truelove, 1952). The ceric ion reagent was prepared by adding 1.3 mL of concentrated nitric acid to 40 mL of distilled water, then 10.96 g of ceric ammonium nitrate was dissolved in the dilute nitric acid solution and the solution was brought to a final volume of 50 mL. For the assay, […] of butanol standard or culture supernatant was mixed with […] distilled water in a disposable plastic cuvette followed by addition of […] of the ceric ion reagent. The sample was mixed by inverting the cuvette six times then exactly two minutes later the optical density at 500 nm wavelength was measured. The concentration of total alcohols was determined by comparison with a standard curve prepared by using butanol diluted in distilled water.
# Spores of C. acetobutylicum ATCC 824 were germinated and grown overnight at 30 C under anaerobic conditions in YEPG medium. After about 24 h of growth, […] of the culture was transferred (transfer 1) to each of four flasks that contained 10 mL of YEPG and either had no treatment or were treated with peptide SEQ ID NO: 143 (see Table 8 and FIG. 1) at 1 nM, 10 nM or 50 nM. Thereafter, […] of each culture was transferred, at the same time, every 24-48 h to 10 mL of fresh YEPG that contained the same peptide treatment or no treatment. Each culture was stopped after 96 hours of incubation and optical density, pH and ceric ion reactive chemicals were measured. Sequential batch culturing was continued through 5 transfers at which point the untreated culture and those treated with 1 nM and 10 nM of peptide SEQ ID NO: 143 had stopped growing (Table 9). […] In addition, treatment with 1 nM of peptide SEQ ID NO: 143 appeared to stop growth at the first transfer, but growth was restored in the second and third transfers.
substance,measurement,setting,value
SYPGWSW [peptide SEQ ID NO: 143],Extension of growth during sequential batch cultures,"1 nM, 30 °C, untreated culture stopped earlier",growth through the third transfer
same,Final pH,"1 nM, transfer 1, 30 °C",6.0
same,Optical density at 600 nm,"1 nM, transfer 1, 30 °C",0.005
same,Optical density of ceric ion reactive compounds measured at 500 nm,"1 nM, transfer 1, 30 °C",0.048
same,Final pH,"1 nM, transfer 2, 30 °C",4.4
same,Optical density at 600 nm,"1 nM, transfer 2, 30 °C",2.274
same,Optical density of ceric ion reactive compounds measured at 500 nm,"1 nM, transfer 2, 30 °C",0.119
same,Final pH,"1 nM, transfer 3, 30 °C",4.4
same,Optical density at 600 nm,"1 nM, transfer 3, 30 °C",2.165
same,Optical density of ceric ion reactive compounds measured at 500 nm,"1 nM, transfer 3, 30 °C",0.167
same,Final pH,"1 nM, transfer 4, 30 °C",6.0
same,Optical density at 600 nm,"1 nM, transfer 4, 30 °C",0.044
same,Optical density of ceric ion reactive compounds measured at 500 nm,"1 nM, transfer 4, 30 °C",0.031
same,Final pH,"1 nM, transfer 5, 30 °C",6.0
same,Optical density at 600 nm,"1 nM, transfer 5, 30 °C",0.004
same,Optical density of ceric ion reactive compounds measured at 500 nm,"1 nM, transfer 5, 30 °C",0.040
same,Extension of growth during sequential batch cultures,"10 nM, 30 °C",growth through the fourth transfer
same,Final pH,"10 nM, transfer 1, 30 °C",4.4
same,Optical density at 600 nm,"10 nM, transfer 1, 30 °C",2.001
same,Optical density of ceric ion reactive compounds measured at 500 nm,"10 nM, transfer 1, 30 °C",0.175
same,Final pH,"10 nM, transfer 2, 30 °C",4.4
same,Optical density at 600 nm,"10 nM, transfer 2, 30 °C",2.245
same,Optical density of ceric ion reactive compounds measured at 500 nm,"10 nM, transfer 2, 30 °C",0.184
same,Final pH,"10 nM, transfer 3, 30 °C",4.5
same,Optical density at 600 nm,"10 nM, transfer 3, 30 °C",2.379
same,Optical density of ceric ion reactive compounds measured at 500 nm,"10 nM, transfer 3, 30 °C",0.187
same,Final pH,"10 nM, transfer 4, 30 °C",4.5
same,Optical density at 600 nm,"10 nM, transfer 4, 30 °C",2.266
same,Optical density of ceric ion reactive compounds measured at 500 nm,"10 nM, transfer 4, 30 °C",0.192
same,Final pH,"10 nM, transfer 5, 30 °C",5.9 and 6.0
same,Optical density at 600 nm,"10 nM, transfer 5, 30 °C",0.028
same,Optical density of ceric ion reactive compounds measured at 500 nm,"10 nM, transfer 5, 30 °C",0.043
same,Extension of growth during sequential batch cultures,"50 nM, 30 °C",growth through the fifth transfer
same,Final pH,"50 nM, transfer 1, 30 °C",4.4
same,Optical density at 600 nm,"50 nM, transfer 1, 30 °C",1.879
same,Optical density of ceric ion reactive compounds measured at 500 nm,"50 nM, transfer 1, 30 °C",0.159
same,Final pH,"50 nM, transfer 2, 30 °C",4.6
same,Optical density at 600 nm,"50 nM, transfer 2, 30 °C",2.089
same,Optical density of ceric ion reactive compounds measured at 500 nm,"50 nM, transfer 2, 30 °C",0.189
same,Final pH,"50 nM, transfer 3, 30 °C",4.5
same,Optical density at 600 nm,"50 nM, transfer 3, 30 °C",2.313
same,Optical density of ceric ion reactive compounds measured at 500 nm,"50 nM, transfer 3, 30 °C",0.183
same,Final pH,"50 nM, transfer 4, 30 °C",4.4
same,Optical density at 600 nm,"50 nM, transfer 4, 30 °C",2.187
same,Optical density of ceric ion reactive compounds measured at 500 nm,"50 nM, transfer 4, 30 °C",0.187
same,Final pH,"50 nM, transfer 5, 30 °C",4.3
same,Optical density at 600 nm,"50 nM, transfer 5, 30 °C",2.173
same,Optical density of ceric ion reactive compounds measured at 500 nm,"50 nM, transfer 5, 30 °C",0.174
same,Culture degeneration in terms of number of sequential transfers and production of total alcohols,30 °C,prevent culture degeneration
same,Number of additional sequential transfers versus a culture without added peptide,30 °C,at least four more times
same,Expected extension of time in continuous culture,"extrapolated from sequential batch transfers, dilution rate of 0.05/hour",about five-fold
same,Expected time in continuous culture,"extrapolated from sequential batch transfers, dilution rate of 0.05/hour, from about 140 hours without peptide",about 700 hours
